Experimental data: ChEMBL document CHEMBL1148640, “Biological evaluation, chelation, and molecular modeling studies of novel metal-chelating inhibitors of NF-kappaB-DNA binding: structure activity relationships” (J Med Chem, 2006)

Test system: Radical scavenging activity
Assay: Inhibition of superoxide radical scavenging activity
Format: functional

| IC50 [µM] | SMILES |
| --- | --- |
| 51.5 | O=c1c(Br)cc2c(-c3ccccc3S(=O)(=O)O)c3cc(Br)c(O)c(O)c3oc-2c1O [BROMOPYROGALLOL RED] |
| > 250 | CC1=C/C(=C(/c2cc(C)c(O)c(C(=O)O)c2)c2c(Cl)ccc(S(=O)(=O)O)c2Cl)C=C(C(=O)O)C1=O [CHROME AZUROL S] |
| > 250 | CC1=C/C(=C(/c2cc(C)c(O)c(C(=O)O)c2)c2ccccc2S(=O)(=O)O)C=C(C(=O)O)C1=O [ERIOCHROME CYANINE R] |
| 120 | O=C1C=C/C(=C(/c2ccc(O)c(O)c2)c2ccccc2S(=O)(=O)O)C=C1O [PYROCATECHOL VIOLET] |
| 88 | O=c1ccc2c(-c3ccccc3S(=O)(=O)O)c3ccc(O)c(O)c3oc-2c1O [PYROGALLOL RED] |
